# Laboratory results taken from publication PMC10874388, “Cyclic peptides discriminate BCL-2 and its clinical mutants from BCL-XL by engaging a single-residue discrepancy” (Nature Communications, 2024).
# Where “and” joins values, the source holds several entries; their conditions need not be identical. Identical values can stand only once.
# Columns and labels:
# Jurkat cells [1] = experiment: Apoptosis assay, Annexin V-FITC/PI staining and flow cytometry; format: cell-based
# Protocol: Jurkat cells were seeded to 6-well plates at a density of 4 ×10^5 cells per well. Cells were incubated in the presence of DMSO, venetoclax at 2.5 μM, cp1-TAT at 30 μM, cp2-TAT at 30 μM, or cp3-TAT at 20 μM in serum-free RPMI medium for 4 h. After being incubated totally for 24 h, cells were washed once with PBS and stained with 100 μL binding buffer containing 5 μL Annexin V-FITC and 10 μL PI for 15 min, followed by addition of 400 μL binding buffer to detect cell apoptosis with FCM (BD FACSAria Fusion). Statistical analysis was performed using software FlowJo V10 and GraphPad Prism 7.0.
# Jurkat cells [2] = experiment: Cytochrome C release assay (mitochondrial cytochrome C, Western blot); format: cell-based; details: 2.5 μM, 12 h
# Protocol: Jurkat cells at 2 ×10^6 cells/mL were incubated in the presence of DMSO or 50 μM BIP-V5 inhibitor[54] (Yuanye Biotechnology Co., Ltd, 579492-81-2) for 24 h. Two groups of above treated cells were each divided into four groups and incubated in the presence of DMSO, venetoclax at 2.5 μM, cp4-TAT at 20 μM, or cp5-TAT at 15 μM in serum-free RPMI medium for 4 h. Then the medium was supplemented with FBS to 10% and incubated for another 8 h. After being treated by venetoclax or CPs for totally 12 h, cell were processed with the Mitochondrial Separation Kit (Beyotime, C3601) to extract mitochondria. Cytochrome C in mitochondria and BAX proteins in the whole cells were detected by Western blot.
# Cell lysates containing equal amounts of total proteins were denatured, subjected to electrophoresis on SDS-PAGE gels, and transferred onto nitrocellulose membranes. The blots were blocked with 5% skim milk and then incubated at 4 °C overnight with the corresponding primary antibodies against BCL-2 (dilution 1:1000, Abcam, ab194583), BCL-XL (dilution 1:1000, Abcam, ab32370), anti-Flag (dilution 1:1000, Sigma, F1804), cytochrome C (dilution 1:1000, Beyotime, AC909), BAX (dilution 1:1000, Beyotime, AB026), α-Tubulin (dilution 1:3000, Abcam, ab7291), or β-Actin (dilution 1:3000, Abcam, ab8227). […]
# [3] = test system: A549 cells overexpressing BCL-2 G101V; experiment: Cell viability assay, A549 stably overexpressing BCL-2 G101V; format: cell-based; details: for luminescence reading (raw, replicate wells) / luminescence reading, everage / inhibition rate: BCL2/G101V A549; for luminescence reading, everage: mean of 6 wells
# Protocol: (§1) Cell viability was measured using CellTiter-Glo® 2.0 Reagent (Promega, G9242). […] After different inhibitors were added into serum-free medium and cultured for 4 h (RS4:11 for 6 h), FBS were supplemented to 10% and then incubated totally for 24 h or 48 h. Finally, the IC50 values were calculated based on measurements using a microplate reader (Thermo, Varioskan LUX). Statistical analysis was performed using software GraphPad Prism 7.0.
# Lentivirus packaging vectors pMDLg/pRRE, pRSV-Rev, and pVSV-G were obtained from Prof. Han Jiahuai’s lab (Xiamen University). Lentiviruses were produced using 3rd-generation lentivirus packaging plasmids transiently transfected into HEK293T cells with the constructs of interest using 0.25 M CaCl2. Media was changed after 16 h, and supernatants containing infectious virus particles were harvested 24 h later. A second viral harvest was made following a further 24 h incubation with fresh media. Virus containing supernatant was filtered through a […], and stored at 4 °C or −80 °C until being used. Typically, A549 cells were seeded into 10 cm cell culture dishes at 4 ~ 8 × 10^5 cells/cm^2. An equivalent volume of virus containing culture medium was added along with polybrene (Sigma) to a final concentration of 10 µg/mL. Cells were incubated at 37 °C for 20 h, before they were washed and resuspended in fresh culture media. The expression level of BCL-2 was measured by qPCR and western blot methods.
# El4 cells = experiment: Cell viability assay (CellTiter-Glo), El4; format: cell-based; details: Mus musculus, 48 h treatment, NO = no inhibition detected
# Protocol: The cell lines Jurkat (TIB-152), El4 (TIB-39), Daudi (ccl-213), RS4:11 (crl-1873), A549 (ccl-185), HepG2 (hb-8065) and PANC-1 (crl-1469) were purchased from ATCC (American Type Culture Collection), and MGC-803 (C6582) was purchased from Beyotime (https://www.beyotime.com/product/C6582.htm). […] Daudi and RS4:11 cells were cultured in RPMI-1640 medium (HyClone, SH30809.01) and 10% FBS (Gibco, 10099-141), whereas HepG2, MGC-803 and PANC-1 cells were cultured in MDEM (HyClone, SH30243.01). Cells were maintained at 37 °C under a humidified, 5% (v/v) CO2-containing atmosphere.
# as §1
# BCL-2 G101V = test system: BCL-2 G101V; parameters: method as in PMID 31160589; details: SPR assays; cited from earlier work
smiles,measurement,setting,value
CC1(C)CCC(CN2CCN(c3ccc(C(=O)NS(=O)(=O)c4ccc(NCC5CCOCC5)c([N+](=O)[O-])c4)c(Oc4cnc5[nH]ccc5c4)c3)CC2)=C(c2ccc(Cl)cc2)C1 [venetoclax],cell apoptosis(%),"Jurkat cells [1]; Figure 6b, replicate values",94.5% and 85.6%
same,Proportion of apoptotic cells,"Jurkat cells [1]; Jurkat, 24 h, 2.5 μM",94.5%
same,Cytochrome C level in mitochondria,Jurkat cells [2],decreased clearly
same,"luminescence reading (raw, replicate wells)",[3]; ABT-199 0.390625 uM,626600 and 647800 and 649100 and 614500 and 623500 and 619300
same,"luminescence reading, everage",[3]; ABT-199 0.390625 uM,630133
same,inhibition rate,"[3]; ABT-199 0.390625 uM, replicate wells",-3% and -6.36% and -6.57% and -0.889% and -2.37% and -1.68%
same,"luminescence reading (raw, replicate wells)",[3]; ABT-199 0.78125 uM,583300 and 568200 and 597700 and 560800 and 571600 and 528100
same,"luminescence reading, everage",[3]; ABT-199 0.78125 uM,568283
same,inhibition rate,"[3]; ABT-199 0.78125 uM, replicate wells",4.23% and 7% and 1.87% and 8% and 6% and 13%
same,"luminescence reading (raw, replicate wells)",[3]; ABT-199 1.5625 uM,398200 and 407800 and 413600 and 450500 and 408700 and 467800
same,"luminescence reading, everage",[3]; ABT-199 1.5625 uM,424433
same,inhibition rate,"[3]; ABT-199 1.5625 uM, replicate wells",33% and 32% and 26% and 23%
same,"luminescence reading (raw, replicate wells)",[3]; ABT-199 3.125 uM,271900 and 280300 and 266200 and 296500 and 277300 and 344500
same,"luminescence reading, everage",[3]; ABT-199 3.125 uM,289450
same,inhibition rate,"[3]; ABT-199 3.125 uM, replicate wells",54% and 56% and 51% and 43%
same,"luminescence reading (raw, replicate wells)",[3]; ABT-199 6.25 uM,262900 and 273800 and 273900 and 296400 and 264200 and 315700
same,"luminescence reading, everage",[3]; ABT-199 6.25 uM,281150
same,inhibition rate,"[3]; ABT-199 6.25 uM, replicate wells",51% and 48%
same,"luminescence reading (raw, replicate wells)",[3]; ABT-199 12.5 uM,184500 and 179700 and 182600 and 196200 and 190700 and 205800
same,"luminescence reading, everage",[3]; ABT-199 12.5 uM,189917
same,inhibition rate,"[3]; ABT-199 12.5 uM, replicate wells",68% and 69% and 66%
same,"luminescence reading (raw, replicate wells)",[3]; ABT-199 25 uM,98970 and 101200 and 102400 and 107200 and 99210 and 118800
same,"luminescence reading, everage",[3]; ABT-199 25 uM,104630
same,inhibition rate,"[3]; ABT-199 25 uM, replicate wells",83% and 82% and 80%
same,"luminescence reading (raw, replicate wells)",[3]; ABT-199 50 uM,50230 and 51420 and 49850 and 51590 and 53640 and 55790
same,"luminescence reading, everage",[3]; ABT-199 50 uM,52087
same,inhibition rate,"[3]; ABT-199 50 uM, replicate wells",91%
same,"luminescence reading (raw, replicate wells)",[3]; ABT-199 100 uM,16880 and 17260 and 16270 and 16910 and 17660 and 17950
same,"luminescence reading, everage",[3]; ABT-199 100 uM,17155
same,"luminescence reading (raw, replicate wells)",[3]; ABT-199 200 uM,5500 and 6087 and 6493 and 5130 and 5793 and 6329
same,"luminescence reading, everage",[3]; ABT-199 200 uM,5889
same,inhibition at 1.5625 µM,"[3]; Homo sapiens, A549, BCL2/G101V A549, ABT-199 1.5625 uM, replicate wells, read-out: inhibition rate",35%
same,inhibition at 3.125 µM,"[3]; Homo sapiens, A549, BCL2/G101V A549, ABT-199 3.125 uM, replicate wells, read-out: inhibition rate",55%
same,inhibition at 6.25 µM,"[3]; Homo sapiens, A549, BCL2/G101V A549, ABT-199 6.25 uM, replicate wells, read-out: inhibition rate",57%
same,inhibition at 12.5 µM,"[3]; Homo sapiens, A549, BCL2/G101V A549, ABT-199 12.5 uM, replicate wells, read-out: inhibition rate",70%
same,inhibition at 25 µM,"[3]; Homo sapiens, A549, BCL2/G101V A549, ABT-199 25 uM, replicate wells, read-out: inhibition rate",84%
same,inhibition at 50 µM,"[3]; Homo sapiens, A549, BCL2/G101V A549, ABT-199 50 uM, replicate wells, read-out: inhibition rate",92%
same,inhibition at 100 µM,"[3]; Homo sapiens, A549, BCL2/G101V A549, ABT-199 100 uM, replicate wells, read-out: inhibition rate",97%
same,inhibition at 200 µM,"[3]; Homo sapiens, A549, BCL2/G101V A549, ABT-199 200 uM, replicate wells, read-out: inhibition rate",99%
same,IC50,"[3]; Homo sapiens, A549, 48 h, CellTiter-Glo, n = 6",4100 ± 300 nM
same,IC50,El4 cells,1700 ± 200 nM
same,Reduction of binding affinity of BCL-2 to venetoclax by G101V,BCL-2 G101V,~ 180 fold
